Data reported in BindingDB's records for patent US11091471 (Hoffmann-La Roche, 2021).

Biological target: Gamma-aminobutyric acid receptor subunit gamma-2 / Gamma-aminobutyric acid receptor subunit alpha-5 (Homo sapiens, UniProt P18507+P31644)
Test: Electrophysiology
Description: Electrophysiological experiments were performed on days 3 to 5 after the micro-injection of mRNA. During the experiment the oocytes were constantly superfused by a solution containing (in mM) NaCl 90, KCl 1, HEPES 5, MgCl2 1, CaCl2 1 (pH 7.4). Oocytes were impaled by two glass microelectrodes (resistance: 0.4 MΩ) which were filled with a solution containing KCl 1M+K-acetate 1.5 M and voltage-clamped to −80 mV. The recordings were performed at room temperature using the Roboocyte two-electrode voltage clamp system (Multichannelsystem). After an initial equilibration period of 1.5 min GABA was added for 1.5 min at a concentration evoking approximately 20% of a maximal current response (EC20). After another rest interval of 2.5 min GABA was again added evoking a response of similar amplitude and shape. 0.5 min after the onset of this second GABA application the test compound, at a concentration corresponding to approximatively 30 fold its Ki, was added while GABA was still present. Current traces were recorded at a digitization rate of 10 Hz during and shortly before and after the GABA application.

Gamma-aminobutyric acid receptor subunit gamma-2 / Gamma-aminobutyric acid receptor subunit alpha-5, sequence (P18507 40-475 limits assumed): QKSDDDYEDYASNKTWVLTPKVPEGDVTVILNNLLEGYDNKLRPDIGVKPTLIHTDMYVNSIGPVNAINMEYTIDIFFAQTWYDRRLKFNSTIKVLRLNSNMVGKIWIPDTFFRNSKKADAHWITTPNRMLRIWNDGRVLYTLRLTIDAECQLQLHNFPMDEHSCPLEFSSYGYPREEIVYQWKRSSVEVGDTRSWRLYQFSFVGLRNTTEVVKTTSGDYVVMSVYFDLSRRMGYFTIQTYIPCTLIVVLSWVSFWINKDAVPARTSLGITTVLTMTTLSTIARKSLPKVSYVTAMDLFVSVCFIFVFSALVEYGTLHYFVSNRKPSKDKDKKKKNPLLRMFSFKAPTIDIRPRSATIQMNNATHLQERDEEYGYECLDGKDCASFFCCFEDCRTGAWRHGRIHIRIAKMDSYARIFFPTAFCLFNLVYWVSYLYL
Gamma-aminobutyric acid receptor subunit gamma-2 / Gamma-aminobutyric acid receptor subunit alpha-5, sequence (P31644 32-462 limits assumed): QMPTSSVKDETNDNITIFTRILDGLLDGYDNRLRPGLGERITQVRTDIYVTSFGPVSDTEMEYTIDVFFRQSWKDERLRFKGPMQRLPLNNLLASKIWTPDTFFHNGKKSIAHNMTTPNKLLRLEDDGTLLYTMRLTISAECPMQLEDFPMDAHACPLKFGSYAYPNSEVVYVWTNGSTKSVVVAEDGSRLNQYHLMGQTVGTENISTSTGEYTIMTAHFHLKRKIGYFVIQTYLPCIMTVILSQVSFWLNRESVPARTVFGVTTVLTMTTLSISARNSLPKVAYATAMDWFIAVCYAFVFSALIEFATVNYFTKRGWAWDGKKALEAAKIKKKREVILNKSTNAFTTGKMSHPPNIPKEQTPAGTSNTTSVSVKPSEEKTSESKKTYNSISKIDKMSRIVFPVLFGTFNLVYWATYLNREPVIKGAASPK

Cc1onc(-c2ccc(Cl)nc2)c1COc1ccc(C(=O)N[C@H]2CCOC2)nn1 [US11091471, Example 160]
Ki: 9.3 nM
